This note sets out measurements from US20220289766A1 (INFLAZOME LIMITED, priority 2019, published 2022).

In general, IC50 refers to the point on the concentration scale where inhibition reaches its midpoint.

For experiment [1], the target named is T1, NLRP3 (Homo sapiens, UniProt Q96P20). The experiment can be described thus: Human whole blood IL-1β release assay. It counts as cell-based. On the set-up: Plate out 80 μl of whole blood containing 1 μg/ml of LPS in 96-well, clear bottom cell culture plate; from tissue; host or cells: human whole blood from healthy donors. Particulars: LPS 1 μg/ml, compound 3 hrs, nigericin 10 μM 1 hr, IL-1β by AlphaLisa, read-out: HWB IC50. As to the method:
For systemic delivery, the ability to inhibit NLRP3 when the compounds are present within the bloodstream is of great importance. For this reason, the NLRP3 inhibitory activity of a number of compounds in human whole blood was investigated in accordance with the following protocol.
Human whole blood in Li-heparin tubes was obtained from healthy donors from a volunteer donor panel. • 1. Plate out 80 μl of whole blood containing 1 μg/ml of LPS in 96-well, clear bottom cell culture plate (Corning #3585) • 2. Add 10 μl compound (8 points half-log dilution with 10 μM top dose) or vehicle (DMSO 0.1% FAC) to the appropriate wells • 3. Incubate for 3 hrs at 37° C., 5% CO2 • 4. Add 10 μl nigericin (Sigma #N7143) (10 μM FAC) to all wells • 5. Incubate for 1 hr at 37° C., 5% CO2 • 6. At the end of the incubation period, spin plates at 300×g for 5 mins to pellet cells and remove […] of supernatant and add to 96-well v-bottom plates for IL-1β analysis (note: these plates containing the supernatants can be stored at −80° C. to be analysed at a later date) • 7. IL-1β was measured according to the manufacturer protocol (Perkin Elmer-AlphaLisa IL-1 Kit AL220F-5000) • 8. IC50 data is fitted to a non-linear regression equation (log inhibitor vs response-variable slope 4-parameters)
For orientation: In Alpha technology, singlet oxygen from a donor bead excites a nearby acceptor bead.

The target in experiment [2] is T1, NLRP3. The experiment can be described thus: THP-1 cells pyroptosis assay. On the set-up: Seed THP-1 cells (25,000 cells/well) containing 1.0 μg/ml LPS in 40 μl of RPMI medium; host or cells: THP-1 cells. It counts as cell-based. The conditions noted are these: LPS 1 μg/ml, compound 3 hrs, nigericin 5 μM 1 hr, resazurin readout. As to the method: THP-1 cells (ATCC #TIB-202) were grown in RPMI containing L-glutamine (Gibco #11835) supplemented with 1 mM sodium pyruvate (Sigma #S8636) and penicillin (100 units/ml)/streptomycin (0.1 mg/ml) (Sigma #P4333) in 10% Fetal Bovine Serum (FBS) (Sigma #F0804). The cells were routinely passaged and grown to confluency (˜10^6 cells/ml). On the day of the experiment, THP-1 cells were harvested and resuspended into RPMI medium (without FBS). The cells were then counted and viability ([…]) checked by Trypan blue (Sigma #T8154). Appropriate dilutions were made to give a concentration of 625,000 cells/ml. To this diluted cell solution was added LPS (Sigma #L4524) to give a 1 μg/ml Final Assay Concentration (FAC). 40 μl of the final preparation was aliquoted into each well of a 96-well plate. The plate thus prepared was used for compound screening.
The following method step-by-step assay was followed for compound screening. • 1. Seed THP-1 cells (25,000 cells/well) containing 1.0 μg/ml LPS in 40 μl of RPMI medium (without FBS) in 96-well, black walled, clear bottom cell culture plates coated with poly-D-lysine (VWR #734-0317) • 2. Add 5 μl compound (8 points half-log dilution, with 10 μM top dose) or vehicle (DMSO 0.1% FAC) to the appropriate wells • 3. Incubate for 3 hrs at 37° C., 5% CO2 • 4. Add 5 μl nigericin (Sigma #N7143) (FAC 5 μM) to all wells • 5. Incubate for 1 hr at 37° C., 5% CO2 • 6. At the end of the incubation period, spin plates at 300×g for 3 mins and remove supernatant • 7. Then add 50 μl of resazurin (Sigma #R7017) (FAC 100 μM resazurin in RPMI medium without FBS) and incubate plates for a further 1-2 hrs at 37° C. and 5% CO2 • 8. Plates were read in an Envision reader at Ex 560 nm and Em 590 nm • 9. IC50 data is fitted to a non-linear regression equation (log inhibitor vs response-variable slope 4-parameters)
On the technique in general: Alamar Blue is a resazurin reagent that responds to reducing activity.

Some results are limits rather than exact numbers.

T1 sequence (Q96P20 whole entry): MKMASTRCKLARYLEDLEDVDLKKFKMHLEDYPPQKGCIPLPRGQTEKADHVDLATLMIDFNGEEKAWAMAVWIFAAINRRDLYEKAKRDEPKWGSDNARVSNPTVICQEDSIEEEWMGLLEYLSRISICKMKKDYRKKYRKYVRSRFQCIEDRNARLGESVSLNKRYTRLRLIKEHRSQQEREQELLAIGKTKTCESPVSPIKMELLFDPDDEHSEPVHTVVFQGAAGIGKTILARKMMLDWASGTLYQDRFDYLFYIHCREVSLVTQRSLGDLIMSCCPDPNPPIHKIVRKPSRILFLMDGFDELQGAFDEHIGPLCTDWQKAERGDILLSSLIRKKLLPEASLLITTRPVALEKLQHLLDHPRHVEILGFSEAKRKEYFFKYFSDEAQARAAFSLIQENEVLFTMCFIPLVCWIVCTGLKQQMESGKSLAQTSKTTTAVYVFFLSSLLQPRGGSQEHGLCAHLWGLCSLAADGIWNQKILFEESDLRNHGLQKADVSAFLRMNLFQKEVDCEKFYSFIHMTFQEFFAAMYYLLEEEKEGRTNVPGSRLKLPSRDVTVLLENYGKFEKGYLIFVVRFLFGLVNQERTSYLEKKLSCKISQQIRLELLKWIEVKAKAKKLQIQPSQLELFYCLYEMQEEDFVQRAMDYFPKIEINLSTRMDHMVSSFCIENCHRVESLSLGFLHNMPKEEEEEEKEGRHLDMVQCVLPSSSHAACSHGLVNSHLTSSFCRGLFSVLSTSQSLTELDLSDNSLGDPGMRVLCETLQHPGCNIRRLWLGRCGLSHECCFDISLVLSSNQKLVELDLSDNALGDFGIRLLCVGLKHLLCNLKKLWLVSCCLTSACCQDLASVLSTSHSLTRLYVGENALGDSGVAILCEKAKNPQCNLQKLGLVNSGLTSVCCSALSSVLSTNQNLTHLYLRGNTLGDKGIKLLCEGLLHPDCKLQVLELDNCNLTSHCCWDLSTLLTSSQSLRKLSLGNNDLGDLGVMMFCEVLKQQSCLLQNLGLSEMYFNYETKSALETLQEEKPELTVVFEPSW

As for `O=C1Nc2c(ccc3c2CCC3)-c2ccnc(c2)O[C@H]2COC[C@@H]2n2ccc(n2)S(=O)(=O)N1` (racemic) [Example 35, (anti)-21,24-dioxa-14λ^6-thia-11,13,18,26,30-pentaazahexacyclo-[23.3.1.1^15,18.0^2,10.0^5,9.0^19,23]-triaconta-1(28),2,4,9,15(30),16,25(29),26-octaene-12,14,14-trione], the results for the IC50 in experiment [1] and in experiment [2] were 100 to 500 nM and at most 100 nM, respectively. With `O=C1Nc2c3c(cc4c2C(CCCCCCn2ccc(n2)S(=O)(=O)N1)CC4)CCC3` (racemic) [Example 48, 5λ^6-thia-2,4,9,27-tetraazapentacyclo[14.9.1.1^6,9.0^19,26.0^21,25]heptacosa-1(25),6(27),7,19(26),20-pentaene-3,5,5-trione], the IC50 in experiment [1] lay in the range of 5000 to 10000 nM; in experiment [2], 1000 to 5000 nM. For `O=C1Nc2c3c(cc4c2C(CCCCn2ccc(n2)S(=O)(=O)N1)CC4)CCC3` (racemic) [Example 49, 10λ^6-thia-6,11,13,25-tetraazapentacyclo[12.9.1.1^6,9.0^15,19.0^21,24]pentacosa-7,9(25),14,19,21(24)-pentaene-10,10,12-trione], in experiment [2], the concentration for half-maximal inhibition (IC50) lay in the range of 1000 to 5000 nM.

As to `O=C1Nc2c3c(cc4c2C(CCCCCn2ccc(n2)S(=O)(=O)N1)CC4)CCC3` (racemic) [Example 50, 5λ^6-thia-2,4,9,26-tetraazapentacyclo[13.9.1.1^6,9.0^18,25.0^20,24]hexacosa-1(24),6(26),7,18(25),19-pentaene-3,5,5-trione], the IC50 lay within 1000 to 5000 nM in experiment [1] and 100 to 500 nM in experiment [2]. Taken in the same sequence, the figures for `O=C1Nc2c(ccc3c2CCC3)-c2ccnc(c2)OCCCCCn2ccc(n2)S(=O)(=O)N1` [Example 1, 24-Oxa-14λ^6-thia-11,13,18,26,30-pentaazapentacyclo-[23.3.1.1^15,18.0^2,10.0^5,9]-triaconta-1(29),2(10),3,5(9),15(30),16,25,27-octaene-12,14,14-trione] were 1000 to 5000 nM and 100 to 500 nM.

As to `Cc1cc2c(c3c1-c1ccnc(c1)OCCCCCn1ccc(n1)S(=O)(=O)NC(=O)N3)CCC2` [Example 2, 3-methyl-24-oxa-14λ^6-thia-11,13,18,26,30-pentaaza-pentacyclo[23.3.1.1^15,18.0^2,10.0^5,9]-triaconta-1(29),2(10),3,5(9),15(30), 16,25,27-octaene-12,14,14-trione], the IC50 in experiment [1] is 500 to 1000 nM; in experiment [2] it was at most 100 nM.

As to `O=C1Nc2c(ccc3c2CCC3)-c2ccnc(c2)OCCOCCn2ccc(n2)S(=O)(=O)N1` [Example 3, 21,24-dioxa-14λ^6-thia-11,13,18,26,30-pentaazapentacyclo-[23.3.1.1^15,18.0^2,10.0^5,9]triaconta-1(29),2(10),3,5(9),15(30),16,25,27-octaene-12,14,14-trione], the IC50 in experiment [1] and in experiment [2] was 100 to 500 nM each time. `O=C1Nc2c(ccc3c2CCC3)-c2ccnc(c2)OCCCCn2ccc(n2)S(=O)(=O)N1` [Example 4, 23-oxa-14λ^6-thia-11,13,18,25,29-pentaazapentacyclo-[22.3.1.1^15,18.0^2,10.0^5,9]nonacosa-1(28),2(10),3,5(9),15(29),16,24,26-octaene-12,14,14-trione]: the half-maximal inhibitory concentration (IC50) in experiment [1] is 500 to 1000 nM; in experiment [2] it was 100 to 500 nM. The corresponding values for `O=C1Nc2c(ccc3c2CCC3)-c2ccnc(c2)OCCCCCCn2ccc(n2)S(=O)(=O)N1` [Example 5, 25-oxa-14λ^6-thia-11,13,18,27,31-pentaazapentacyclo-[24.3.1.1^15,18.0^2,10.0^5,9]hentriaconta-1(30),2(10),3,5(9),15(31),16,26,28-octaene-12,14,14-trione] are 1000 to 5000 nM and 100 to 500 nM.

On to `O=C1Nc2c(ccc3c2CCC3)-c2ccnc(c2)OCCCCCn2cc(cn2)S(=O)(=O)N1` [Example 6, 24-oxa-14λ^6-thia-11,13,17,18,26-pentaazapentacyclo-[23.3.1.1^15,18.0^2,10.0^5,9]triaconta-1(28),2,4,9,15(30),16,25(29),26-octaene-12,14,14-trione], for which the 50% inhibitory concentration (IC50) in experiment [1] lay in the range of 1000 to 5000 nM; in experiment [2], 100 to 500 nM. For the molecule `O=C1Nc2c(ccc3c2CCC3)-c2ccnc(c2)OCCCn2ccc(n2)S(=O)(=O)N1` [Example 7, 22-oxa-14λ^6-thia-11,13,18,24,28-pentaazapentacyclo-[21.3.1.1^15,18.0^2,10.0^5,9]octacosa-1(26),2,4,9,15(28),16,23(27),24-octaene-12,14,14-trione], the IC50 in experiment [1] and in experiment [2] was 500 to 1000 nM each time. For `CN1CCOc2cc(ccn2)-c2ccc3c(c2NC(=O)NS(=O)(=O)c2ccn(n2)CC1)CCC3` [Example 8, 21-methyl-24-oxa-14λ^6-thia-11,13,18,21,26,30-hexaazapentacyclo-[23.3.1.1^15,18.0^2,10.0^5,9]triaconta-1(28),2,4,9,15(30),16,25(29),26-octaene-12,14,14-trione], the IC50 in experiment [1] and in experiment [2] was 500 to 1000 nM in each case. Take `O=C1Nc2c(ccc3c2CCC3)-c2cccc(c2)OCCCCCn2ccc(n2)S(=O)(=O)N1` [Example 9, 24-oxa-14λ^6-thia-11,13,18,30-tetraazapentacyclo-[23.3.1.1^15,18.0^2,10.0^5,9]triaconta-1(28),2,4,9,15(30),16,25(29),26-octaene-12,14,14-trione]: the IC50 in experiment [1] lay in the range of 1000 to 5000 nM; in experiment [2], 500 to 1000 nM. The corresponding values for `CC(C)c1cc(F)cc2c1NC(=O)NS(=O)(=O)c1ccn(n1)CCCCCOc1cc-2ccn1` [Example 10, 4-fluoro-6-(propan-2-yl)-21-oxa-11λ^6-thia-8,10,15,23,27-pentaazatetracyclo-[20.3.1.1^12,15.0^2,7]heptacosa-1(25),2(7),3,5,12(27),13,22(26),23-octaene-9,11,11-trione] are 1000 to 5000 nM and 500 to 1000 nM. The corresponding values for `CC1(C)COc2cc(ccn2)-c2ccc3c(c2NC(=O)NS(=O)(=O)c2ccn1n2)CCC3` [Example 11, 19,19-dimethyl-21-oxa-14λ^6-thia-11,13,18,23,27-pentaaza-pentacyclo[20.3.1.1^15,18.0^2,10.0^5,9]-heptacosa-1(25),2,4,9,15(27),16,22(26),23-octaene-12,14,14-trione] are 100 to 500 nM and 100 to 500 nM. `O=C1Nc2c(ccc3c2CCC3)-c2ccnc(c2)OCc2cc(nn2C2CC2)S(=O)(=O)N1` [Example 16, 17-cyclopropyl-20-oxa-14λ^6-thia-11,13,16,17,22-pentaazapentacyclo-[19.3.1.1^15,18.0^2,10.0^5,9]hexacosa-1(24),2,4,9,15,18(26),21(25),22-octaene-12,14,14-trione] gave an IC50 in experiment [2] of 1000 to 5000 nM. Still for that read-out and setting: to `O=C1Nc2c(ccc3c2CCC3)-c2cccc(c2)OCCCn2ccc(n2)S(=O)(=O)N1` [Example 21, 22-oxa-14λ^6-thia-11,13,18,28-tetraazapentacyclo-[21.3.1.1^15,18.0^2,10.0^5,9]-octacosa-1(26),2,4,9,15(28),16,23(27),24-octaene-12,14,14-trione] belongs 1000 to 5000 nM.
